The source of these data is the NIST ThermoML archive (doi:10.1016/j.tca.2016.03.016).

± gives the expanded uncertainty stated by the source.

Series [1] can be described thus: Molar enthalpy of transition or fusion. Particulars: DSC.

With `CC(C)(CO)CO` [2,2-dimethyl-1,3-propanediol], the Normal melting temperature (Crystal 1, DTA) amounted to 128.50 ± 1.1 °C. The Triple point temperature (Crystal 2, DSC) worked out at 314.95 ± 1.2 K. In addition, the “Molar enthalpy of transition or fusion” value was determined as 3.98 ± 0.22 kJ/mol in series [1] (Crystal 1) and 11.1 ± 0.52 kJ/mol in series [1] (Crystal 2).
